# Source: ChEMBL document CHEMBL6114941, “Recent progress on small molecule TLR4 antagonist against triple-negative breast cancer progression and complications” (2024)
# What was measured:
# Type in all cases: functional
# Ehrlich = experiment: Antitumor activity against mouse Ehrlich cells implanted in BALB/c nude mouse assessed as increase in apoptotic cell death at 5 mg/kg, ip administered once daily for 7 days relative to control; conditions: time 7 day
# MDA-MB-435 [1] = experiment: Antiproliferative activity against human MDA-MB-435 cells assessed as inhibition of cell growth at 10 uM in presence of paclitaxel relative to control
# MDA-MB-435 [2] = experiment: Antiproliferative activity against human MDA-MB-435 cells assessed as inhibition of cell growth at 1 nM relative to control
compound,measurement,setting,value
COc1cc(/C=C/C(=O)/C=C/c2ccc(O)c(OC)c2)ccc1[O-].[Na+],Activity,Ehrlich,30%
CCc1ccc(/C=C/C(=O)/C=C(O)/C=C/c2ccc(OC)c(O)c2OC)c(CC)c1O,inhibition at 10 µM,MDA-MB-435 [1],45%
CC(=O)O[C@H]1C(=O)[C@@]2(C)[C@H]([C@H](OC(=O)c3ccccc3)[C@]3(O)C[C@H](OC(=O)[C@H](O)[C@@H](NC(=O)c4ccccc4)c4ccccc4)C(C)=C1C3(C)C)[C@]1(OC(C)=O)CO[C@@H]1C[C@@H]2O [PACLITAXEL],inhibition at 0.001 µM,MDA-MB-435 [2],97%
